Reference: patent publication US6153587A, “Conformationally constrained LH-RH analogues, their uses and pharmaceutical compositions containing them” (Laboratoire THERAMEX, priority 1996, dated 2000)
Values joined by “and” are separate entries in the source; they are usually repeats but may differ in a detail not shown here. Equal entries are not always repeated. Where two headings read alike, the source gives them in different places. Where a SMILES comes first, the peptide text is derived from it. [ ]: non-standard residue; d: D form. The star is where a group is joined. dPhe(4-Cl) = N[C@H](Cc1ccc(Cl)cc1)C(=O)O; d2Nal = N[C@H](Cc1ccc2ccccc2c1)C(=O)O; Lys(iPr) = CC(C)NCCCC[C@H](N)C(=O)O; d3Pal = N[C@H](Cc1cccnc1)C(=O)O; Nicotinoyl = O=C(c1cccnc1)*

Assays:
[1] = target: T1, LH-RH receptors (Rattus norvegicus, UniProt P30969); test: Inhibition of ovulation in female Wistar rats; type: in vivo
T1 construct: from tissue; host or cells: rat pituitary membrane fraction (female Sprague Dawley)
T1 sequence (P30969 1-327): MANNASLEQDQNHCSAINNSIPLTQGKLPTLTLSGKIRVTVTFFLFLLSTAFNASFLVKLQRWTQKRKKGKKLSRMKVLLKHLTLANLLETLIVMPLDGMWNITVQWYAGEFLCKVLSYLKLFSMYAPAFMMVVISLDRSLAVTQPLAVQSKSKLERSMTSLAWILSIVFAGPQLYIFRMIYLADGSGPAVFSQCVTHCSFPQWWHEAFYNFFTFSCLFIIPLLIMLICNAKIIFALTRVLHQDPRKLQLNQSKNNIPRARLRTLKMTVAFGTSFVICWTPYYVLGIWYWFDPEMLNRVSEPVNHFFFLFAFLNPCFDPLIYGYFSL
Experimental: The peptides according to the general formula (IIb) exert an antagonist activity upon the LH-RH receptors in vivo, resulting in the inhibition of ovulation in the female.
Adult female Wistar rats are first monitored for normal estrous cyclicity by daily vaginal smears. After at least 2 regular 4-day cycles, they received by subcutaneous injection either the vehicle alone (0.5 ml of a mixture of propylene-glycol and water: 20/80 vol/vol), or the LH-RH antagonist according to the formula (IIb) dissolved in this vehicle, around 2:00 PM on the day of proestrus.
If effective, LH-RH antagonists totally block ovulation. […] The 50% inhibitory dose of antide is slightly lower than 1 μg/rat.

[2] = target: T1, LH-RH receptors; test: Affinity for LH-RH receptors: [125I]-buserelin binding to rat pituitary membranes; details: for Ki: 2 hours at 4° C., Ki from IC50 by Cheng-Prusoff
Experimental: This affinity has been determined according to the following method:
Pituitaries from female Sprague Dawley rats were removed and homogenized with a Potter homogenizer in a 25 mM HEPES buffer (pH 7.4) containing 0.32 M sucrose, 100 μg/l PMSF (phenylmethylsulfonylfluoride), 5.6 U/l aprotinin and 10,000 U/l bacitracin. The homogenates were centrifuged at 700 g for 10 minutes and the supernatants were further centrifuged at 12,500 g for 30 minutes. The pellets were homogenized and centrifuged as described above, in the same buffer but without sucrose.
All homogenization, centrifugation and subsequent incubation steps were carried out at 4° C.
The assay was terminated by filtration under suction (Brandel 96-well harvester) through Whatman GF/B glass fiber filters. […] Each compound was tested in at least 4 experiments.
Specific binding data were analysed according to Scatchard's method.
For each test compound, the inhibitory constant (Ki) was calculated from its IC50 according to the Cheng and Prussofs equation: Ki=IC50 /(1+[radioligand]/Kd). Ki was then transformed into pKi (=-log Ki) for final expression of affinity scales.

[3] = target: T1, LH-RH receptors; test: Total plasma testosterone in male Sprague-Dawley rats after subcutaneous injection; type: in vivo; details: 30 nanograms/kg subcutaneous; for Total testosterone: plasma at two hours, male Sprague-Dawley rats
Experimental: (§1) The peptides according to the general formula (IIa) exert an agonist activity upon the LH-RH receptors in vivo, resulting in the induction of ovulation in the female and in the stimulation of testosterone secretion in the male following acute subcutaneous administration.
Adult male Sprague-Dawley rats are treated by a subcutaneous injection of LH-RH agonists at the same dose of 30 nanograms/kg dissolved in PBS. Two hours later, blood samples are drawn for total plasma testosterone measurement by direct radioimmunoassay (Immunotech). At this dose, LH-RH itself is not active standard LH-RH agonists and selected examples according to formula (Ila) are compared in Table 3 below: […]

[4] = target: T1, LH-RH receptors; test: Induction of ovulation in pentobarbital-blocked female Wistar rats; type: in vivo; details: subcutaneous
Experimental: as §1
Adult female Wistar rats are first monitored for normal estrous cyclicity by daily vaginal smears. After at least 2 regular 4-day cycles, they all receive an intraperitoneal injection of 50 mg/kg of sodium pentobarbital around 2:00 PM on the day of proestrus, which blocks the spontaneous ovulation in the negative control animals receiving in addition only the subcutaneous vehicle (PBS: phosphate buffered saline, 0.05 M, pH 7.4 containing 0.1% bovine serum albumin). At the same time, test animals are injected subcutaneously with LH-RH, standard LH-RH agonists or examples according to the formula (Ha), at various doses in solution in the vehicle described above. The following morning, the oviducts are excised and carefully dissected to search for ovocytes. None are found in the negative pentobarbital-blocked animals.
If effective, LH-RH agonists induce ovulation during the night between proestrus and estrus. The percentage of ovulating female rats, defined by the presence of at least one ovocyte in one of the two oviducts, is plotted as a function of the injected dose.

[5] = 20 to 70 μM [125I]-buserelin, read-out: pKi (affinity for LH-RH receptors) (converted)
[6] = pKi (affinity for LH-RH receptors), [125I]-buserelin

Compound | Ki [2, 5] | IC50 range in words ([2]; [125I]-buserelin) | Total testosterone [3] [ng/mL] | ED50 (dose producing 50% of ovulation) [4] [nanograms/rat] | other results
CC(=O)N[C@H](Cc1ccc2ccccc2c1)C(=O)N[C@H](Cc1ccc(Cl)cc1)C(=O)N[C@H](Cc1cccnc1)C(=O)N[C@@H](CO)C(=O)N[C@@H](CCCCNC(=O)c1cccnc1)C(=O)N[C@H](CCCCNC(=O)c1cccnc1)C(=O)N[C@@H](CC(C)C)C(=O)N[C@@H](CCCCNC(C)C)C(=O)N1CCC[C@H]1C(=O)N[C@H](C)C(N)=O [Antide] (Ac-[d2Nal][dPhe(4-Cl)][d3Pal]SK(Nicotinoyl)[dK](Nicotinoyl)L[Lys(iPr)]P[dA]-NH2; N-terminus and C-terminus assumed) | 0.603 nM | subnanomolar range | – | – | Number of ovulating females/total number of treated females ([1]; dose 0.5 μg/rat subcutaneous): 4/5; Number of ovulating females/total number of treated females ([1]; dose 1 μg/rat subcutaneous): 5/16; Number of ovulating females/total number of treated females ([1]; dose 2.5 μg/rat subcutaneous): 2/6; Number of ovulating females/total number of treated females ([1]; dose 5 μg/rat subcutaneous): 0/11; Number of ovulating females/total number of treated females ([1]; dose 10 μg/rat subcutaneous): 0/8; 50% inhibitory dose ([1]; inhibition of ovulation, subcutaneous): lower than 1 μg/rat
CCNC(=O)[C@@H]1CCCN1C(=O)[C@H](CCCNC(=N)N)NC(=O)[C@H](CC(C)C)NC(=O)[C@@H](COC(C)(C)C)NC(=O)[C@H](Cc1ccc(O)cc1)NC(=O)[C@H](CO)NC(=O)[C@H](Cc1c[nH]c2ccccc12)NC(=O)[C@H](Cc1cnc[nH]1)NC(=O)[C@@H]1CCC(=O)N1 [Buserelin] | – | subnanomolar range | 15.4 ± 0.71 | – | Ki [2, 6]: < 1 nM and 0.427 nM
CCNC(=O)[C@@H]1CCCN1C(=O)[C@H](CCCN=C(N)N)NC(=O)[C@H](CC(C)C)NC(=O)[C@@H](Cc1c[nH]c2ccccc12)NC(=O)[C@H](Cc1ccc(O)cc1)NC(=O)[C@H](CO)NC(=O)[C@H](Cc1c[nH]c2ccccc12)NC(=O)[C@H](Cc1cnc[nH]1)NC(=O)[C@@H]1CCC(=O)N1 [Deslorelin] | < 1 nM and 0.126 nM | subnanomolar range | – | 4.8 | –
CC(C)C[C@H](NC(=O)[C@@H](COC(C)(C)C)NC(=O)[C@H](Cc1ccc(O)cc1)NC(=O)[C@H](CO)NC(=O)[C@H](Cc1c[nH]c2ccccc12)NC(=O)[C@H](Cc1cnc[nH]1)NC(=O)[C@@H]1CCC(=O)N1)C(=O)N[C@@H](CCCNC(=N)N)C(=O)N1CCC[C@H]1C(=O)NNC(N)=O [Goserelin] | – | – | 15.0 ± 2.5 | 4.3 | Ki [2, 6]: 2.63 nM
CCNC(=O)[C@@H]1CCCN1C(=O)[C@H](CCCNC(=N)N)NC(=O)[C@H](CC(C)C)NC(=O)[C@@H](Cc1cn(Cc2ccccc2)cn1)NC(=O)[C@H](Cc1ccc(O)cc1)NC(=O)[C@H](CO)NC(=O)[C@H](Cc1c[nH]c2ccccc12)NC(=O)[C@H](Cc1cnc[nH]1)NC(=O)[C@@H]1CCC(=O)N1 [Histrelin] | < 1 nM and 0.105 nM | subnanomolar range | 12.7 ± 1.9 | – | –
CC(C)C[C@H](NC(=O)CNC(=O)[C@H](Cc1ccc(O)cc1)NC(=O)[C@H](CO)NC(=O)[C@H](Cc1c[nH]c2ccccc12)NC(=O)[C@H](Cc1c[nH]cn1)NC(=O)[C@@H]1CCC(=O)N1)C(=O)N[C@@H](CCCNC(=N)N)C(=O)N1CCC[C@H]1C(=O)NCC(N)=O [LH-RH] | – | – | – | 15 | activity on testosterone secretion, in words [3]: not active
CCNC(=O)[C@@H]1CCCN1C(=O)[C@H](CCCNC(=N)N)NC(=O)[C@H](CC(C)C)NC(=O)[C@@H](CC(C)C)NC(=O)[C@H](Cc1ccc(O)cc1)NC(=O)[C@H](CO)NC(=O)[C@H](Cc1c[nH]c2ccccc12)NC(=O)[C@H](Cc1c[nH]cn1)NC(=O)[C@@H]1CCC(=O)N1 [Leuprorelin] | – | – | 11.9 ± 1.5 | 1.9 | –
CC(C)C[C@H](NC(=O)[C@@H](Cc1c[nH]c2ccccc12)NC(=O)[C@H](Cc1ccc(O)cc1)NC(=O)[C@H](CO)NC(=O)[C@H](Cc1c[nH]c2ccccc12)NC(=O)[C@H](Cc1c[nH]cn1)NC(=O)[C@@H]1CCC(=O)N1)C(=O)N[C@@H](CCCNC(=N)N)C(=O)N1CCC[C@H]1C(=O)NCC(N)=O [Tryptorelin] | < 1 nM and 0.141 nM | subnanomolar range | 12.1 ± 0.7 | 2.9 | –
